# According to patent US9517224B2, “Methods of treating patients infected with HIV and HTLV” (THE UNITED STATES OF AMERICA, AS REPRESENTED BY THE …, priority 2012, dated 2016):
# Test system: PBMC's from normal volunteers
# Assay: mRNA for IL-4, INF-gamma, TNF-alpha and CD69 in PBMCs from normal volunteers
# Format: cell-based
substance,measurement,value
ionomycine,"CD69 mRNA, relative fold difference versus untreated control",1.639 fold
same,"IFN-γ mRNA, relative fold difference versus untreated control",1.608 fold
same,"IL-4 mRNA, relative fold difference versus untreated control",0.716 fold
same,"TNF-α mRNA, relative fold difference versus untreated control",0.657 fold
